{"source": "patent US20230190935A1", "about": "“Blood pathogen inactivation method” (Institute of Blood Transfusion CAMS, priority 2021, published 2023)", "test_system": "S. aureus", "test": "Pathogen inactivation in plasma spiked with S. aureus: combinations of low-frequency sonication, UV light and riboflavin", "assay_type": "cell-based", "settings": "for growth of S. aureus after treatment: n = 6"}
{"smiles": "Cc1cc2nc3c(=O)[nH]c(=O)nc-3n(C[C@H](O)[C@H](O)[C@H](O)CO)c2cc1C", "note": "[riboflavin]", "values": [{"measurement": "growth of S. aureus after treatment", "setting": "Riboflavin-containing sample (50 µmol/L, plasma) + low-frequency sonication 30 KHz, no illumination, table row 0.27 J/mL, 10 min", "result": "5.84 ± 0.18", "unit": "log"}, {"measurement": "growth of S. aureus after treatment", "setting": "Riboflavin-containing sample (50 µmol/L, plasma) + low-frequency sonication 30 KHz, no illumination, table row 0.54 J/mL, 20 min", "result": "5.72 ± 0.30", "unit": "log"}, {"measurement": "growth of S. aureus after treatment", "setting": "Riboflavin-containing sample (50 µmol/L, plasma) + low-frequency sonication 30 KHz, no illumination, table row 0.81 J/mL, 30 min", "result": "5.67 ± 0.32", "unit": "log"}, {"measurement": "growth of S. aureus after treatment", "setting": "Sonication (30 KHz) + UV light (311 ± 50 nm) + riboflavin 50 µmol/L in plasma, light energy 0.27 J/mL, 10 min", "result": "4.48 ± 0.46", "unit": "log"}, {"measurement": "growth of S. aureus after treatment", "setting": "Sonication (30 KHz) + UV light (311 ± 50 nm) + riboflavin 50 µmol/L in plasma, light energy 0.54 J/mL, 20 min", "result": "2.04 ± 0.71", "unit": "log"}, {"measurement": "growth of S. aureus after treatment", "setting": "Sonication (30 KHz) + UV light (311 ± 50 nm) + riboflavin 50 µmol/L in plasma, light energy 0.81 J/mL, 30 min", "result": "1.28 ± 0.66", "unit": "log"}, {"measurement": "growth of S. aureus after treatment", "setting": "UV light (311 ± 50 nm) + riboflavin 50 µmol/L in plasma, no sonication, light energy 0.27 J/mL, 10 min", "result": "5.41 ± 0.029", "unit": "log"}, {"measurement": "growth of S. aureus after treatment", "setting": "UV light (311 ± 50 nm) + riboflavin 50 µmol/L in plasma, no sonication, light energy 0.54 J/mL, 20 min", "result": "5.66 ± 0.09", "unit": "log"}, {"measurement": "growth of S. aureus after treatment", "setting": "UV light (311 ± 50 nm) + riboflavin 50 µmol/L in plasma, no sonication, light energy 0.81 J/mL, 30 min", "result": "5.23 ± 0.16", "unit": "log"}, {"measurement": "pathogen inactivation effect (in words)", "setting": "UV light + riboflavin group, 0.81 J/mL", "result": "no inactivation effect"}, {"measurement": "effect of combining low-frequency sonication with riboflavin photochemical method (in words)", "setting": "low-frequency sonication + UV light + riboflavin", "result": "synergistic effect"}, {"measurement": "pathogen inactivation effect (in words)", "setting": "sonication + UV light + riboflavin group", "result": "strong pathogen inactivation effect"}, {"measurement": "pathogen inactivation effect (in words)", "setting": "sonication + riboflavin group, 0.81 J/mL", "result": "no inactivation effect"}]}
